# Experiments:
# human Cx26 hemichannels = biological target: T1, human Cx26 hemichannels (Homo sapiens, UniProt P29033); assay: Cx26-dependent growth complementation assay in LB2003 cells; format: cell-based; settings: for Reduction of Cx26-dependent growth complementation: 100 μM aminoglycoside
# T1 construct: Details of the human Cx26, Cx43, and Cx46 DNAs used to transform LB2003 cells have been published; expressed in transfected cells; host or cells: E. coli LB2003 (with pREP4), IPTG-induced from pQE60
# Procedure: (§1) We then tested all AGs in Figure 4 for inhibition of connexin-dependent growth in AG-resistant LB2003 cells transformed with the pREP4 plasmid.
# (§2) Basically, freshly prepared competent LB2003 containing the pREP4 plasmid were transformed with pQE60 (empty plasmid; negative control), pQE-Cx26 (human Cx26 DNA into pQE60), pQE-Cx43 (human Cx43 into pQE60) or pQE-Cx46 (human Cx46 into pQE60). After growing overnight in Luria-Bertani (LB) medium (BD, Franklin Lakes, NJ, USA) supplemented with 100 mM KCl (to allow growth) and 0.4 mg/mL ampicillin, the cells were washed four times with NLM, to remove residual potassium from the LB medium, and were resuspended in complementation growth medium to an OD600 of 0.2. NLM contained 46 mM Na2HPO4, 23 mM NaH2PO4, 8 mM (NH4)2SO4, 0.4 mM MgSO4, 0.012 mM FeSO4, 1 mM sodium citrate, 44 mM glucose, and 0.006 mM thiamine hydrochloride, pH 7.0. KLM was identical to NLM except for the equimolar replacement of Na^+ with K^+. For growth-complementation by Cx26, Cx43, and Cx46 in low-[K^+] medium we used NLM + 4 mM KCl, NLM + 8 mM KCl, and NLM + 16 mM KCl, respectively. Expression of Cx26 was induced with 0.5 mM IPTG (GoldBio, St. Louis, MO, USA) at the time of dilution to OD600 = 0.2. For growth-complementation by Cx43 and Cx46, we used 10 µM IPTG. Transformed cells in the appropriate growth medium were seeded in 24- or 96-well plates, and the plates were incubated at 30 °C, with shaking at 250 and 500 rpm, respectively. OD600 was measured after 18 h manually for the 24-well plates or in a plate reader for the 96-well plates (Falcon 353072, Corning Inc., Corning, NY, USA). The initial OD600 = 0.2 was subtracted for growth calculations.
# human Cx46 hemichannels = biological target: T2, human Cx46 hemichannels (Homo sapiens, UniProt Q9Y6H8); assay: Cx46-dependent growth complementation assay in LB2003 cells; format: cell-based; settings: for IC50: LB2003-pREP4 cells, NLM + 16 mM KCl, 10 µM IPTG, OD600 after 18 h, mean ± SEM
# T2 construct: Details of the human Cx26, Cx43, and Cx46 DNAs used to transform LB2003 cells have been published; expressed in transfected cells; host or cells: E. coli LB2003 (with pREP4), IPTG-induced from pQE60
# Source text: The first task is accomplished through the use of defined media. We use Na^+ liquid medium (NLM) and K^+ liquid medium (KLM). NLM is a K^+-free phosphate-buffered medium (see Materials and Methods), whereas KLM is a K^+-rich medium that has the composition of NLM, except for the equimolar replacement of Na^+ with K^+. […] By mixing NLM and KLM it is easy to find a range of low [K^+]s where LB2003 cells expressing connexins grow. To optimize the signal-to-noise ratio we identified the “low” [K^+] at which the connexin-expressing cells grow to the highest absorbance measured at 600 nm (OD600), and then tested the dependence of the growth on the concentration of the expression inducer, isopropyl-β-D-thiogalactopyranoside (IPTG). This is important because the optimal signal-to-noise ratio depends on a balance between sufficient permeability to allow K^+ uptake through HCs and too many active HCs, which inhibits growth as a result of depolarization of the inner membrane and/or unbalanced shifts of ions and metabolites. In the case of Cx26, optimal growth is achieved with 4 mM K^+ and 500 μM IPTG, but for Cx43, 8 mM K^+ and 10 μM IPTG work best. From initial trials, we identified 16 mM K^+ and 10 μM IPTG as the best conditions for the Cx46 growth complementation assay.
# This aminoglycoside 3'-phosphotransferase inactivates the AGs in Figure 4 by phosphorylation, allowing us to test for inhibition of connexin-dependent growth complementation without interference by the AG antibiotic effect. The absence of antibiotic effect in the LB2003-pREP4 cells was assayed at an AG concentration of 100 μM in cells grown in KLM (Figure 5). […] We then tested all AGs in Figure 4 for inhibition of connexin-dependent growth in AG-resistant LB2003 cells transformed with the pREP4 plasmid.
# Briefly, pQE60 plasmids containing the connexin DNAs and plasmid pREP4 were used for transformation of E. coli LB2003 cells (generously provided by Dr. E.P. Bakker, Osnabrück University, Osnabrück, Germany). The pQE60 plasmids confer resistance to ampicillin, and pREP4 confers resistance to the AGs used in this study. LB2003 cells are missing three key K^+ transporters (Δtrk, Δkup, and Δkdp strains) and as a result cannot grow in low-[K^+] media [22, 23, 25]. Transformed LB2003 cells were stored as a 25% glycerol stock at −80 °C.
# Basically, freshly prepared competent LB2003 containing the pREP4 plasmid were transformed with pQE60 (empty plasmid; negative control), pQE-Cx26 (human Cx26 DNA into pQE60), pQE-Cx43 (human Cx43 into pQE60) or pQE-Cx46 (human Cx46 into pQE60).
# human Cx43 hemichannels = biological target: T3, human Cx43 hemichannels (Homo sapiens, UniProt P17302); assay: Cx43-dependent growth complementation assay in LB2003 cells; format: cell-based; settings: for IC50: LB2003-pREP4 cells, NLM + 8 mM KCl, 10 µM IPTG, OD600 after 18 h, mean ± SEM
# T3 construct: Details of the human Cx26, Cx43, and Cx46 DNAs used to transform LB2003 cells have been published; expressed in transfected cells; host or cells: E. coli LB2003 (with pREP4), IPTG-induced from pQE60
# Procedure: as §1, §2
# GJCs = system: GJCs; parameters: method as in PMID 26769242, PMID 25237294; settings: cited from earlier work
# HCs = system: HCs; parameters: method as in PMID 26769242, PMID 25237294; settings: mammalian cells and frog oocytes; cited from earlier work
# [1] = system: Cx26, Cx43, and Cx46 hemichannels; assay: Connexin-dependent growth complementation assay, all connexin groups together; format: cell-based, human; settings: 100 μM aminoglycoside, AG-resistant LB2003 cells with pREP4
# Procedure: The absence of antibiotic effect in the LB2003-pREP4 cells was assayed at an AG concentration of 100 μM in cells grown in KLM (Figure 5). […] We then tested all AGs in Figure 4 for inhibition of connexin-dependent growth in AG-resistant LB2003 cells transformed with the pREP4 plasmid.
# Basically, freshly prepared competent LB2003 containing the pREP4 plasmid were transformed with pQE60 (empty plasmid; negative control), pQE-Cx26 (human Cx26 DNA into pQE60), pQE-Cx43 (human Cx43 into pQE60) or pQE-Cx46 (human Cx46 into pQE60). After growing overnight in Luria-Bertani (LB) medium (BD, Franklin Lakes, NJ, USA) supplemented with 100 mM KCl (to allow growth) and 0.4 mg/mL ampicillin, the cells were washed four times with NLM, to remove residual potassium from the LB medium, and were resuspended in complementation growth medium to an OD600 of 0.2. NLM contained 46 mM Na2HPO4, 23 mM NaH2PO4, 8 mM (NH4)2SO4, 0.4 mM MgSO4, 0.012 mM FeSO4, 1 mM sodium citrate, 44 mM glucose, and 0.006 mM thiamine hydrochloride, pH 7.0. KLM was identical to NLM except for the equimolar replacement of Na^+ with K^+. For growth-complementation by Cx26, Cx43, and Cx46 in low-[K^+] medium we used NLM + 4 mM KCl, NLM + 8 mM KCl, and NLM + 16 mM KCl, respectively. […] OD600 was measured after 18 h manually for the 24-well plates or in a plate reader for the 96-well plates (Falcon 353072, Corning Inc., Corning, NY, USA). […]
# [2] = system: Cx26, Cx43, and Cx46 hemichannels; parameters: method as in PMID 25585383, PMID 27789753; settings: cited from earlier work
# LB2003 cells = assay: Antibiotic effect on growth of LB2003 cells in KLM; format: cell-based, Escherichia coli; settings: 100 μM, cells grown in KLM
# Procedure: The absence of antibiotic effect in the LB2003-pREP4 cells was assayed at an AG concentration of 100 μM in cells grown in KLM (Figure 5).
# All drugs were used at a concentration of 100 μM. The cells were grown in K^+ liquid medium (KLM). […] Data were normalized to the OD600 of LB2003-pREP4 cells in the absence of drug (5.7 ± 0.1).
# [3] = LB2003-pREP4 cells, NLM + 4 mM KCl, 0.5 mM IPTG, OD600 after 18 h, mean ± SEM
# T3 sequence (P17302 whole entry): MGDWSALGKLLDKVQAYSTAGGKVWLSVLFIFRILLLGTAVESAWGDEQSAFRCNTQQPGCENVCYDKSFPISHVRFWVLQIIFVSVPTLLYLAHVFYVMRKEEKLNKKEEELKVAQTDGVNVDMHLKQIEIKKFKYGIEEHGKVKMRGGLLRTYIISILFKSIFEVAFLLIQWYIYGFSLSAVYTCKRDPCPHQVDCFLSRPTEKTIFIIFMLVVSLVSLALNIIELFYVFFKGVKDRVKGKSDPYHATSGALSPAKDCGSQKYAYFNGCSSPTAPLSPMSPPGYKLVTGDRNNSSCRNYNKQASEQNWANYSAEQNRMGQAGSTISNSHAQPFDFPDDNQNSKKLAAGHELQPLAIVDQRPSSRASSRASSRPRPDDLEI
compound,measurement,setting,value
"NC[C@@H]1O[C@H](O[C@H]2[C@@H](O)[C@H](O[C@@H]3[C@@H](O)[C@H](N)C[C@H](N)[C@H]3O[C@H]3O[C@H](CO)[C@@H](O)[C@H](O)[C@H]3N)O[C@@H]2CO)[C@H](N)[C@@H](O)[C@@H]1O [Paromomycin, paromomycin]",Reduction of Cx26-dependent growth complementation,human Cx26 hemichannels,~ 80%
same,IC50,human Cx26 hemichannels; [3],42 ± 9 µM
same,Inhibition of Cx46-dependent growth complementation,human Cx46 hemichannels; 200 μM aminoglycoside,37 ± 4%
same,IC50,human Cx46 hemichannels,> 200 µM
same,IC50,human Cx43 hemichannels,201 ± 17 µM
"CN[C@@H]1[C@@H](O)[C@@H](O[C@@H]2[C@@H](O)[C@H](O[C@H]3O[C@H]([C@@H](C)O)[C@@H](O)[C@H](O)[C@H]3N)[C@@H](N)C[C@H]2N)OC[C@]1(C)O [Geneticin, geneticin]",IC50,"human Cx26 hemichannels; IC50 of Cx26-dependent complementation (Figure 6), Figure 6A, fit of Hill's equation",0.436 µM
CNC(C)C1CCC(N)C(OC2C(N)CC(N)C(OC3OCC(C)(O)C(NC)C3O)C2O)O1 (stereo not drawn) [gentamicin],Effect on GJCs,GJCs,does not affect GJCs
same,Effect on HCs,HCs,inhibits HCs reversibly
NC[C@H]1O[C@H](O[C@H]2[C@H](O[C@@H]3O[C@H](CO)[C@@H](O)[C@H]3O)[C@@H](O)[C@H](N)C[C@@H]2N)[C@H](N)[C@@H](O)[C@@H]1O [ribostamycin],Reduction of Cx26-dependent growth complementation,human Cx26 hemichannels,35 ± 3%
same,Inhibition of connexin-dependent growth,[1],only a marginal effect
same,Effect on Cx43-dependent growth complementation (inhibition),human Cx43 hemichannels; 100 μM aminoglycoside,−8 ± 5%
kanamycin A,Effect on HCs in LB2003 cell growth assay,[2],inhibited HCs
same,Growth of AG-sensitive LB2003 cells (no pREP4),LB2003 cells,prevented growth
"NC[C@H]1O[C@H](O[C@H]2[C@H](O)[C@@H](O[C@H]3O[C@H](CO)[C@@H](O)[C@H](N)[C@H]3O)[C@H](N)C[C@@H]2N)[C@H](N)[C@@H](O)[C@@H]1O [Kanamycin B, kanamycin B]",IC50,human Cx26 hemichannels; [3],3.6 ± 0.9 µM
same,IC50,human Cx46 hemichannels,175 ± 9 µM
same,IC50 ratio relative to Cx26 for Cx46,"human Cx46 hemichannels; isoform selectivity, Cx46 IC50 / Cx26 IC50",~ 50
same,IC50,human Cx43 hemichannels,24 ± 2 µM
same,IC50 ratio relative to Cx26 for Cx43,"human Cx43 hemichannels; isoform selectivity, Cx43 IC50 / Cx26 IC50",~ 7

# Source: article PMC6149774, “Inhibition by Commercial Aminoglycosides of Human Connexin Hemichannels Expressed in Bacteria” (Molecules : A Journal of Synthetic Chemistry and Natural …, 2017)
